Laboratory results as given in patent publication US8044050B2, “Imidazo[1,2-a]azines and their use as pharmaceuticals” (Sanofi-Aventis, priority 2007, dated 2011).

System: eNOS promoter
Assay: Activation of eNOS transcription (eNOS promoter-luciferase reporter gene assay)
Format: cell-based
Details: human endothelial cell line stably transfected with eNOS promoter-luciferase construct; 18 h incubation; determined graphically; read-out: EC50 values of transcription induction ratios (TIR)
Experimental: Activation of eNOS transcription was measured as described in detail by Li et al., “Activation of protein kinase C alpha and/or epsilon enhances transcription of the human endothelial nitric oxide synthase gene”, Mol. Pharmacol. 53 (1998) 630. Briefly, a 3.5 kB long fragment 5′ of the starting codon of the eNOS gene was cloned, sequenced and cloned in firefly luciferase expression plasmids to monitor activation of the eNOS promoter by reporter gene activity. A human endothelial cell line stable transfected and expressing this promoter-reporter construct was used for compound testing. Cells were incubated for 18 h with the compounds.
All compounds were dissolved in sterile dimethyl sulfoxide (DMSO). A final concentration of 0.5% DMSO in complete medium was allowed. Induction of reporter gene expression in these cells was measured using a standard luciferase assay system (Promega, Cat. No. E150) according to the manufacturer's instructions. Luciferase induction in cells incubated with compounds were compared to those incubated with solvent alone. The ratio of both activities (transcription induction ratio, TIR) was plotted as a function of compound concentration. […] EC50 values of transcription induction ratios as a function of compound concentration were determined graphically.

| EC50 | Compound |
| --- | --- |
| < 500 nM | Nc1ccc2nc(-c3ccc(F)cc3)cn2n1 [Example 7, 2-(4-Fluoro-phenyl)-imidazo[1,2-b]pyridazin-6-ylamine] |
| < 500 nM | Fc1ccc(-c2cn3nc(Cl)ccc3n2)cc1 [Example 8, 6-Chloro-2-(4-fluoro-phenyl)-imidazo[1,2-b]pyridazine] |
